Results on five compounds are retold here after US9682069B2, “Methods of treating Dravet syndrome” (Ovid Therapeutics Inc., priority 2015, dated 2017).

“Also recorded” adds a separate entry of the source.

The conditions of data set [1]: in vivo, po.
Data set [2] in a line: Study of driving performance after gaboxadol administration (Example 3). In kind it is in vivo, human (healthy male and female subjects). Conditions: for effect on memory test, body sway, DSST or critical tracking: cognitive and psychomotor test battery before the driving test. From the text: The study participants included healthy, male and female subjects between 21 and 45 years of age, with a valid drivers license for at least 3 years.
Following a cognitive and psychomotor test battery, the driving test started at 9 am and lasted for one hour.

A short description of data set [3]: Study of daytime performance after sleep restriction (Example 4). It counts as in vivo, human (healthy adults). How it is done:
The study included a 2-night single-blind placebo run-in period, a 4-night double-blind treatment period during which sleep was restricted to 5 hours and a 2-night single-blind placebo run-out period. The study included healthy male and female volunteers 18 to <55 years of age.
2-night run-in period: All patients received placebo
2-night run-out period: All patients received placebo
The primary endpoints included observations based on the Multiple Sleep Latency Test (MSLT) and Slow Wave Sleep (SWS) assessment.

The conditions of data set [4]: three-month efficacy study, insomnia; cited from earlier work.
The conditions of data set [5]: 111 individuals with depression; cited from earlier work.

As to `CCN(CC)CCN1C(=O)CN=C(c2ccccc2F)c2cc(Cl)ccc21` [Flurazepam], in data set [1], the “residual effect on primary endpoints Choice Reaction Time and Critical Flicker Fusion” value was “showed significant effect”.
For the compound `Oc1noc2c1CCNC2` [gaboxadol, 4,5,6,7-tetrahydroisoxazolo [5,4-c]pyridine-3-ol], in data set [1], the “residual effect on primary endpoints Choice Reaction Time and Critical Flicker Fusion” value is listed as “did not show residual effect”; the “residual effects on other measurements (MSLT, DSST, Tracking, Memory tests, Body Sway, Leeds Sleep Evaluation Questionnaire)” value is reported as “did not show any signs of residual effects”. For the same compound, the tolerability result in data set [2] (both the evening and the middle-of-the-night dose, 15 mg) is recorded as “well tolerated”. In addition, the “effect on memory test, body sway, DSST or critical tracking” value in data set [2] is given as “no effect”. The “daytime performance, effect sizes for the neurocognitive battery” value in data set [3] (gaboxadol 15 mg versus placebo) is “no strong evidence that gaboxadol improves daytime performance”. The “subjective daytime sleepiness versus placebo” value in data set [3] (gaboxadol 15 mg, Sleep Restriction period) is recorded as “trend towards less subjective daytime sleepiness”. Further, the “amount of slow wave sleep (SWS) versus placebo” value in data set [3] (gaboxadol 15 mg, Sleep Restriction period, p<0.001, 1 sided) is recorded as “significantly more SWS; also recorded: increases the amount of slow wave sleep”. The “daytime sleepiness (MSLT) versus placebo” value in data set [3] (gaboxadol 15 mg, Sleep Restriction period, p=0.047, 1 sided) is recorded as “significantly less daytime sleepiness; also recorded: protective effect on reducing daytime sleepiness”. In addition, in data set [3] (gaboxadol 15 mg, last two Sleep Restriction days), the “MSLT, average difference versus placebo (longer)” value was 2.01 min. For the same compound, in data set [3] (gaboxadol 15 mg, last two Sleep Restriction days, LDA model, p=0.058, 1 sided), the “Karolinska Sleepiness Score (KSS), average difference versus placebo (less)” value is 0.68. Further, in data set [3] (gaboxadol 15 mg, last two Sleep Restriction nights), the “SWS, average difference versus placebo (longer)” value is 20.53 min. For the same compound, in data set [4], the “effects in sleep onset and sleep maintenance” value is given as “failed to show significant effects”.
With `OC(c1ccccc1)(c1ccccc1)C1CCCCN1` (centres unmarked) [pipradrol], the “efficacy versus placebo in depression” value in data set [5] is listed as “not superior to placebo”.
Take `Cc1ccc(-c2nc3ccc(C)cn3c2CC(=O)N(C)C)cc1` [zolpidem]: the “effect on driving performance, middle-of-the-night administration” value in data set [2] (dose at 4 am (gaboxadol 15 mg; zolpidem 10 mg), on-the-road driving test at 9 am) is on record as “numerically greater effect”.
For the compound `CN1CCN(C(=O)OC2c3nccnc3C(=O)N2c2ccc(Cl)cn2)CC1` (centres unmarked) [zopiclone], the “effect on memory test, body sway, DSST or critical tracking” value in data set [2] is “had effect on several of these tests”. In addition, in data set [2] (evening dose before bed (gaboxadol 15 mg; zopiclone 7.5 mg), on-the-road driving test at 9 am), the “effect on driving performance, evening dose” value was “numerically greater effect”.
